Measured values taken from patent US20220409650A1, “COMPOSITIONS AND METHODS FOR ASCAROSIDE MODIFICATION OF MAMMALIAN MICROBIOTA” (Holoclara, Inc., priority 2019, published 2022).
“Also recorded” adds a separate entry of the source.

Tests used:
Assay type in all cases: in vivo, C57BL6 mice
gut microbiota = experiment: Gut microbiota diversity (Shannon alpha diversity) from shotgun metagenomic sequencing of stool of treated mice; conditions: stools at end
Method: (§1) In the methods described for each of these examples, C57BL6 mice at 6 weeks of age were allowed to be appropriately acclimated before the start of the change in diet and treatments. For Experiment 1 (Example 1), thirty-two mice were evenly distributed into four groups with Group 1 as the control diet, no treatment, Group 2 as the high-fat diet, treat with DMSO control, Group 3 as the high-fat diet, treated with 12.5 μg of Ascr #7/mouse per injection (0.5 mg/kg dose assuming a 25 gm mouse), Group 4 as the high-fat diet, treated with 4.1 μg Ascr #9/mouse per injection (0.164 mg/kg dose assuming a 25 gm mouse). […]
(§2) DNA was extracted using the Qiagen MagAttract PowerSoil DNA KF kit (Formerly MO Bio PowerSoil DNA Kit) using a KingFisher robot. DNA quality was evaluated visually via gel electrophoresis and quantified using a Qubit 3.0 fluorometer (Thermo-Fischer, Waltham, Mass., USA). […]
(§3) Paired-end sequencing (150 bp×2) was done on a NextSeq 500 in medium-output mode. Shotgun metagenomic sequence reads were processed with the Sunbeam pipeline. […] Processing took part in four steps: adapter removal, read trimming, low-complexity reads removal, and host-sequence read removal. […] Low-complexity sequences were detected with Komplexity v0.3.6.
(§4) The remaining reads were taxonomically classified using Kraken2 with the MiniKraken2_v1 database. […]

Akkermansia = experiment: Differential abundance of Akkermansia in gut microbiota of treated mice (stool sequencing); conditions: Experiment 1, mice, 31 days of treatment, stools at end, vs control (FIG. 9)
Method: as §1, §2, §3, §4

Adlercreutzia = experiment: Differential abundance of Adlercreutzia in gut microbiota of treated mice (stool sequencing); conditions: Experiment 1, mice, 31 days of treatment, stools at end, vs control (FIG. 9)
Method: as §1, §2, §3, §4

[1] = tested on: Bifidobacterium (e.g., Bifidobacterium catenulatum); experiment: Differential abundance of Bifidobacterium in gut microbiota of treated mice (stool sequencing); conditions: stools at end
Method: as §1, §2, §3, §4

[2] = Stool consistency (Bristol Stool Chart) of treated mice; conditions: Experiment 3, mice, 12.5 μg/mouse IP, stools at end, vs untreated control (FIG. 10)
Method: For Experiment 3, ten mice were assigned Group 7 to be treated with DMSO control. Eight mice were assigned to Group 8 to be treated with 12.5 μg of Ascr #7/mouse per injection (0.5 mg/kg dose assuming a 25 gm mouse). Nine mice were assigned to Group 9 to be treated with 12.5 μg of Compound 1/mouse per injection (0.5 mg/kg dose assuming a 25 gm mouse). To make the master stocks, Ascr #7 and Compound 1 were dissolved in DMSO to make 10 μg/uL of the Ascr #7 and Compound 1 master stocks and 12.5 μL of each master stocks were aliquoted into glass vials for each day of injection. Mice from each group were IP injected three times a week for 3 weeks and one day for a total of 10 injections. On each day of IP injection, 987.5 μL of ultra-pure water is added to each master stocks to make 0.125 μg/uL of Ascr #7 and Compound 1 working stocks and 100 μL of each was IP injected into mice. As will be described in greater detail below, Compound 1 refers to the ascaroside derisive:
The methods and compositions described herein may also be used to treat constipation. Constipation, which accompanies various diseases, may be a symptom of underlying defects in either transit of fecal mass through the gut or defecation, a commonly diagnosed functional gastrointestinal disorder. […]

Row | SMILES | alpha diversity of the gut microbiota (Shannon's diversity index) (gut microbiota; Experiment 1, high-fat diet mice, 4.1 μg/mouse IP three times a week for 31 days, vs control (FIG. 4)) | amount of Akkermansia in the gut microbiota (Akkermansia) | amount of Adlercreutzia in the gut microbiota (Adlercreutzia) | alpha diversity of the gut microbiota (Shannon's diversity index) (gut microbiota; Experiment 3, mice, 12.5 μg/mouse IP three times a week, 10 injections, vs DMSO control (FIG. 3)) | amount of Bifidobacter in the gut microbiota ([1]; Experiment 1, mice, 31 days of treatment, vs control (FIG. 9)) | amount of Bifidobacterium catenulatum in the gut microbiota ([1]; Experiment 3, mice, vs control (FIG. 8)) | proportion of feces with Type 4 stools (smooth and soft, Bristol Stool Chart) [2]
1 | C[C@H](CCC(=O)O)O[C@@H]1O[C@@H](C)[C@H](O)C[C@H]1O [Ascr #9] | increase in alpha diversity; also recorded: increased | increase in the overall amount | increase in the overall amount |  |  |  | 
2 | C[C@H](CC/C=C/C(=O)O)O[C@@H]1O[C@@H](C)[C@H](O)C[C@H]1O [Ascr #7] |  | increases; also recorded: increase in the overall amount | increases; also recorded: increase in the overall amount | increased alpha diversity; also recorded: substantial increase in diversity | increases | specific increase; also recorded: increased significantly | significantly higher proportion of feces with Type 4 stools
3 | C[C@H](CC/C=C/C(=O)OC(C)(C)C)O[C@@H]1O[C@@H](C)[C@H](O)C[C@H]1O [Compound 1, tert-butyl (2E,6R)-6-{[(2R,3R,5R,6S)-3,5-dihydroxy-6-methyloxan-2-yl]oxy}hept-2-enoate] |  |  |  |  |  |  | significantly higher proportion of feces with Type 4 stools
